The values that follow come from patent EP0068563A2, “Heterocyclic acetic acid compounds and compositions for treating bone diseases” (THE PROCTER & GAMBLE COMPANY, priority 1981, dated 1983).

Molecules are shown by their SMILES.

In one assay the test system is Fetal rat bone. Kind of assay: PGE2 stimulated in vitro bone resorption in the fetal long bone system (45Ca release). It is filed as cell-based. The settings on record: versus control cultures; for inhibition at 390 µM: concentration 0.39 mM; for inhibition at 1560 µM: concentration 1.56 mM. How it is done: Fetal rat bone was cultured in the medium described in this reference. Bone resorption was stimulated by addition of prostaglandin, PGE2, and measured by the release of previously incorporated ^45Ca into the medium and by changes in the total bone calcium content.
PGE2 Stimulated Bone Resorption in the Fetal Long Bone System

Assay [1] concerns Weanling male Sprague-Dawley derived rats. Kind of assay: in vivo periosteal and endosteal bone apposition rates and endosteal resorption rates (tetracycline/DCAF double label, tibial sections). The settings on record: for ERR (endosteal resorption rate) / EBAR (endosteal bone apposition rate) / P BAR (periosteal bone apposition rate): subcutaneous daily, 10 days, rat tibia; for ERR (endosteal resorption rate): control 3.6; for EBAR (endosteal bone apposition rate): control 4.0; for P BAR (periosteal bone apposition rate): control 14.7. Set-up: EBAR (endosteal bone apposition rate) / ERR (endosteal resorption rate): unit not given here. The text has this:
The following test was used to establish in vivo periosteal and endosteal bone apposition rates and endosteal resorption rates. The test method is a modification of the method of Baylink, et al., J. Clin. Invest.
Weanling male Sprague-Dawley derived rats weighing 50-60 grams (Charles River Breeding Labs, Wilmington, Massachusetts) were allowed 2-3 days to adapt to the laboratory environment before receiving any treatment. Throughout the adaptation and experimental periods the animals were allowed free access to tap water and food (Purina Lab Rat Chow, Ralston Purina Company, St. Louis, Missouri).
On the first day of the experiment all animals were given a subcutaneous injection of tetracycline hydrochloride at a dose of 20 mg/kg to label the skeleton. Test compound and saline (control animals) treatments were also started on the first day of the experiment. They were given subcutaneously under skin flap where the rear legs join the body using alternating sides each day. Since these animals were rapidly growing, body weights were taken daily and dosage adjusted accordingly.
Seven days after the animals received tetracycline they were given a subcutaneous injection of (2,4 bis)N-N'-di (carboxymethyl)amino methylfluorescein (DCAF) at a dose of 20 mg/kg to provide a second skeletal label.
Ten days after treatments were initiated, the animals were sacrificed by carbon dioxide asphyxiation and their left and right tibias and femurs taken and placed in 70% ethanol until they were further processed.
The test comoounds were given as solutions preoared in distilled water, and the pH was adjusted to 7.4. Solution concentrations were adjusted so that constant volumes of 0.2 ml/100 grams of body weight could be maintained for all animals.
Dose volumes were […] of body weight.
DCAF, (2,4-bis)-N,N'di(carboxymethyl) amino methyl fluorescein, Nutritional Biochemicals Corporation, Cleveland, Ohio was given as a 1% solution in 2% sodium bicarbonate and 0.8% dextrose. This solution was filtered prior to administration to remove any undissolved particles. Dose volumes of the DCAF solution were 0.2 ml/100 grams of body weight.
The left tibiae were blocked stained with Villanueva's stain, embedded in methyl methacrylate and sectioned at 75-100 u. Cross sections were prepared from the shaft of the tibia where it is joined by the distal portion of the fibula.
These parameters were measured in tibial cross sections and in longitudinal sections through the proximal tibial epiphysis with a 5 mm micrometer which was superimposed optically over the section by placing it in the eyepiece of a microscope. Conversion of the values obtained to actual widths was established with a stage micrometer.
The width between fluorescent labels on the periosteal surface was established at 100x by making 4 measurements at 90. degree intervals around the circumference of the labeled area. Measurements were made from the middle of one label to the middle of' the next. A mean value was then established for each surface and multiplied times the conversion factor to obtain the actual distance in microns. Bone apposition rates were then calculated by dividing this value by the number of days over which the fluorescent labels were given (i.e. 7 days).
Endosteal bone apposition was established at 100x by making 4 measurements at equidistant points across the section from the bottom of the plate to the closest fluorescent label (the last label administered). A mean value was then established and multiplied times a conversion factor to obtain the actual distance in microns.
A mean value was then established and multiplied times a conversion factor to obtain the actual distance in microns. Bone resorption rates were calculated by dividing this value by number of days over which the experiment was conducted (i.e. 10 days).

A word on the inhibition: it is the drop in the measured response relative to a control, in per cent. As for `O=C(O)Cc1cccs1` [Thiophene-2-Acetic Acid], in the assay on Fetal rat bone, the inhibition at 390 µM stood at 47.8% and the inhibition at 1560 µM came out at 107%.
The matching figures for `O=C(O)c1cccs1` [Thiophene-2-Carboxylic Acid, reference compound]: 43% and 47.8%.
As to `O=P(O)(O)C(Cl)(Cl)P(=O)(O)O` [Cl2MDP, dichloro-methylene-diphosphonate], in assay [1] (dose 16 uM), the “ERR (endosteal resorption rate)” value turned out to be 1.3, the “EBAR (endosteal bone apposition rate)” value is on record as 3.2 and the “P BAR (periosteal bone apposition rate)” value was 14.8. In assay [1] (dose 80 uM), the “ERR (endosteal resorption rate)” value is recorded as 0, the “EBAR (endosteal bone apposition rate)” value is given as 3.1 and the “P BAR (periosteal bone apposition rate)” value stood at 14.8.
In the case of `O=C(O)Cc1cc2ccccc2s1` [BTAA, benzothiophene-2-acetic acid], in assay [1] (dose 5 uM), the “ERR (endosteal resorption rate)” value was 1.2, the “EBAR (endosteal bone apposition rate)” value is on record as 3.5 and the “P BAR (periosteal bone apposition rate)” value worked out at 16.0. In assay [1] (dose 16 uM), the “ERR (endosteal resorption rate)” value is 0.9, the “EBAR (endosteal bone apposition rate)” value was 3.9 and the “P BAR (periosteal bone apposition rate)” value is on record as 18.1.
Regarding `O=C(O)c1cc2ccccc2s1` [BTCA, benzothiophene-2-carboxylic acid], in assay [1] (dose 5 uM), the “ERR (endosteal resorption rate)” value came out at 2.9, the “EBAR (endosteal bone apposition rate)” value came out at 3.5 and the “P BAR (periosteal bone apposition rate)” value is recorded as 18.2. In assay [1] (dose 16 uM), the “ERR (endosteal resorption rate)” value is 3.3, the “EBAR (endosteal bone apposition rate)” value was determined as 3.4 and the “P BAR (periosteal bone apposition rate)” value was 16.2. Also, in assay [1] (summary of the rat test table), the “bone resorption (conclusion in words)” value is reported as “does not significantly reduce bone resorption”.
Take `COc1ccc2[nH]c(C(=O)O)cc2c1` [5-Methoxyindole-2-Carboxylic Acid]: in the assay with Fetal rat bone, the inhibition at 390 µM came to 47.5% and the inhibition at 1560 µM worked out at 80.1%.
Regarding `O=C(O)Cc1nc2ccccc2[nH]1` [BMZAA, benzimidazole-2-acetic acid], in assay [1] (dose 5 uM), the “ERR (endosteal resorption rate)” value worked out at 1.0, the “EBAR (endosteal bone apposition rate)” value is reported as 3.8 and the “P BAR (periosteal bone apposition rate)” value stood at 15.5. Moreover, in assay [1] (dose 16 uM), the “ERR (endosteal resorption rate)” value is given as 1.5, the “EBAR (endosteal bone apposition rate)” value was 3.4 and the “P BAR (periosteal bone apposition rate)” value is listed as 18.1.
